In patent publication US6531464B1, “Methods for the treatment of neurodegenerative disorders using substituted phenanthridinone derivatives” (Inotek Pharmaceutical Corporation, priority 1999, dated 2003):

Key:
Assay type in all cases: cell-based
[1] = molecular target: T1, PARS (Mus musculus, UniProt P11103); test: High glucose induced PARS activation in murine lung microvascular endothelial cells; design: endogenous in cells; host or cells: primary lung microvascular endothelial cells from wild-type mice; settings: 30 mM glucose, 6 hours; PJ34 100 nM-3 μM, MnTBAP 100 μM, carboxy-PTIO 300 μM, L-NMA 3 mM, L-NAME 3 mM
Description: In brief, lung microvascular endothelial cells were isolated from wild-type (+/+) and PARS knockout (−/−) mice. Cells were maintained in F12/DMEM (1:1) medium supplemented with endothelial cell growth supplement (100 μg/l heparin and 10% fetal calf serum).
PARS activation was measured in endothelial cells seeded in 6 well tissue culture plates pre-coated with endothelial cell attachment factor (Sigma). Medium was replaced by regular- (see above) or FCS-free HUVEC medium containing 5 mM D-glucose 12 h before the experiment. […] After 10 min, cells were scraped, transferred into Eppendorf tubes and the reaction was stopped by trichloroacetic acid (TCA). Pellets were washed three times in 5% TCA and then solubilized in 500 μl 2% SDS/0.1 N NaOH at 37° C. Contents of the tubes were added to 7 ml ScintiSafe Plus scintillation liquid and radioactivity was measured in a liquid scintillation counter (Wallac, Gaithersburg, Md.). Activity was normalized for protein content.
Target sequence in this assay (P11103 whole entry): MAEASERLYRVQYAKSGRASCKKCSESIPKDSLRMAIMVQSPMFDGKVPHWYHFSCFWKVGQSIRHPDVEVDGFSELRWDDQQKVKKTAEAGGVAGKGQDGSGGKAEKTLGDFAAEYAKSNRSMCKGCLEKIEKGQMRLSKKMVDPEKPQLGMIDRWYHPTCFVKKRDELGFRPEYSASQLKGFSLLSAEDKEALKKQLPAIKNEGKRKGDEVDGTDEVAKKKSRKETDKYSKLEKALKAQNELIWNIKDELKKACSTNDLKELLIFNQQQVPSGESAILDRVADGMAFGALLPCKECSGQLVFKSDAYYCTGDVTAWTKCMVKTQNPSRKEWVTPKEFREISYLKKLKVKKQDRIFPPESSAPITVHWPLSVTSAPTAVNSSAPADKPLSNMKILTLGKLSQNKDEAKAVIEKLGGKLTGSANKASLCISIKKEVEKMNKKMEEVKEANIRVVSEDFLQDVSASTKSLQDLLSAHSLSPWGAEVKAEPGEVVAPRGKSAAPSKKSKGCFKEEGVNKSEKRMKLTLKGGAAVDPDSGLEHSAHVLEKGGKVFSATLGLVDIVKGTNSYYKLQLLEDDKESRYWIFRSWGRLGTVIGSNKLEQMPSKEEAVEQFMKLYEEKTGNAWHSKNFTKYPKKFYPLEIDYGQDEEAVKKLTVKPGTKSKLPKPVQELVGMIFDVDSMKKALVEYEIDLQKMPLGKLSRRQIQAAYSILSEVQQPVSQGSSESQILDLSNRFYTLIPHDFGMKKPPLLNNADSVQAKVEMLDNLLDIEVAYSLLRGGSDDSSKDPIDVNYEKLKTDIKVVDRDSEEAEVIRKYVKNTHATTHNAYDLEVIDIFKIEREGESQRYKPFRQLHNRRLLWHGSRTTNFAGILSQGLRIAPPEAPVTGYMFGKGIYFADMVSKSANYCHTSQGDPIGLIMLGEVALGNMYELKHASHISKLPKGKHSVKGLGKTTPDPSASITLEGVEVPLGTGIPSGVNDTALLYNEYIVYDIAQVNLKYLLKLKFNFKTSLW

[2] = tested on: TNF-α; test: LPS-stimulated J774 macrophages: TNF-α production; settings: for production of the pro-inflammatory cytokine TNF-α (in words): J774 macrophages exposed to LPS; for EC50: Mus musculus, J774, LPS 10 μg/ml, 30 min pretreatment 0.1 to 30 μM, measured at 24 h, mean±SEM n=3-6, read-out: Inhibition of TNF-α (J774)
Source text: (§1) In in vitro studies, J774 macrophages were exposed to bacterial lipopolysaccharide (LPS), to induce pro-inflammatory mediator production and cytotoxicity. […] This assay (the LPS-stimulated macrophage) represents an in vitro model of an inflammatory situation. Agents that block inflammatory mediator production in this assay are expected to have anti-inflammatory or immunosuppressive effects in inflammatory or immune diseases.
(§2) The half-maximal inhibitory effect (in μM) of various PJ compounds was assessed under a variety of conditions in immunostimulated J774 macrophages and in peroxynitrite-stimulated thymocytes. Macrophages or thymocytes were first treated with a chosen PJ compound for 30 min at a concentration ranging from 0.1 to 30 μM. The cells were then immunostimulated with LPS (10 μg/ml) or treated with peroxynitrite (30 μM). MIP production in the macrophages was measured at 3 h, TNF and nitric oxide were measured at 24 h, cell viability in the macrophages were measured at 24 h. PARS activation and cell death in thymocytes were measured at 6 h. Measurements of mediator production, PARS activation and cell death were essentially as described in Németh, et al., Eur J Pharmacol 339:215-221, 1997 and Virág and Szabó, Br J Pharmacol, 126: 769-777, 1999. Results in Table 2 are shown as EC50 values (half maximal inhibition of mediator production or restoration of cell viability; in μM): [mean±SEM of n=3-6 determinations].

[3] = tested on: MIP-1α; test: LPS-stimulated J774 macrophages: MIP-1α production; settings: for production of the chemokine MIP-1α (in words): J774 macrophages exposed to LPS; for EC50: Mus musculus, J774, LPS 10 μg/ml, 30 min pretreatment 0.1 to 30 μM, measured at 3 h, mean±SEM n=3-6, read-out: Inhibition of MIP-1α (J774)
Source text: as §1, §2

[4] = tested on: MIP-2; test: LPS-stimulated J774 macrophages: MIP-2 production; settings: for production of the chemokine MIP-2 (in words): J774 macrophages exposed to LPS; for EC50: Mus musculus, J774, LPS 10 μg/ml, 30 min pretreatment 0.1 to 30 μM, measured at 3 h, mean±SEM n=3-6, read-out: Inhibition of MIP-2 (J774)
Source text: as §1, §2

[5] = tested on: nitric oxide (nitrite); test: LPS-stimulated J774 macrophages: nitric oxide production measured as nitrite; settings: for production of nitric oxide, measured as nitrite (in words): J774 macrophages exposed to LPS; for EC50: Mus musculus, J774, read-out: Inhibition of Nitrite (J774)
Source text: as §1, §2

[6] = tested on: J774 macrophages; test: LPS-stimulated J774 macrophages: cell viability; settings: for viability of the cells suppressed by LPS exposure (in words): J774 macrophages exposed to LPS; for EC50: Mus musculus, J774, LPS 10 μg/ml, 30 min pretreatment 0.1 to 30 μM, measured at 24 h, mean±SEM n=3-6, read-out: Enhancement of cell Viability (J774)
Source text: as §1, §2

[7] = molecular target: T1, PARS; test: Peroxynitrite-stimulated thymocytes: PARS activation; settings: isolated thymocytes exposed to peroxynitrite or hydrogen peroxide
Description: The half-maximal inhibitory effect (in μM) of various PJ compounds was assessed under a variety of conditions in immunostimulated J774 macrophages and in peroxynitrite-stimulated thymocytes. Macrophages or thymocytes were first treated with a chosen PJ compound for 30 min at a concentration ranging from 0.1 to 30 μM. The cells were then immunostimulated with LPS (10 μg/ml) or treated with peroxynitrite (30 μM). MIP production in the macrophages was measured at 3 h, TNF and nitric oxide were measured at 24 h, cell viability in the macrophages were measured at 24 h. PARS activation and cell death in thymocytes were measured at 6 h.
Target sequence in this assay (P11103 2-1013): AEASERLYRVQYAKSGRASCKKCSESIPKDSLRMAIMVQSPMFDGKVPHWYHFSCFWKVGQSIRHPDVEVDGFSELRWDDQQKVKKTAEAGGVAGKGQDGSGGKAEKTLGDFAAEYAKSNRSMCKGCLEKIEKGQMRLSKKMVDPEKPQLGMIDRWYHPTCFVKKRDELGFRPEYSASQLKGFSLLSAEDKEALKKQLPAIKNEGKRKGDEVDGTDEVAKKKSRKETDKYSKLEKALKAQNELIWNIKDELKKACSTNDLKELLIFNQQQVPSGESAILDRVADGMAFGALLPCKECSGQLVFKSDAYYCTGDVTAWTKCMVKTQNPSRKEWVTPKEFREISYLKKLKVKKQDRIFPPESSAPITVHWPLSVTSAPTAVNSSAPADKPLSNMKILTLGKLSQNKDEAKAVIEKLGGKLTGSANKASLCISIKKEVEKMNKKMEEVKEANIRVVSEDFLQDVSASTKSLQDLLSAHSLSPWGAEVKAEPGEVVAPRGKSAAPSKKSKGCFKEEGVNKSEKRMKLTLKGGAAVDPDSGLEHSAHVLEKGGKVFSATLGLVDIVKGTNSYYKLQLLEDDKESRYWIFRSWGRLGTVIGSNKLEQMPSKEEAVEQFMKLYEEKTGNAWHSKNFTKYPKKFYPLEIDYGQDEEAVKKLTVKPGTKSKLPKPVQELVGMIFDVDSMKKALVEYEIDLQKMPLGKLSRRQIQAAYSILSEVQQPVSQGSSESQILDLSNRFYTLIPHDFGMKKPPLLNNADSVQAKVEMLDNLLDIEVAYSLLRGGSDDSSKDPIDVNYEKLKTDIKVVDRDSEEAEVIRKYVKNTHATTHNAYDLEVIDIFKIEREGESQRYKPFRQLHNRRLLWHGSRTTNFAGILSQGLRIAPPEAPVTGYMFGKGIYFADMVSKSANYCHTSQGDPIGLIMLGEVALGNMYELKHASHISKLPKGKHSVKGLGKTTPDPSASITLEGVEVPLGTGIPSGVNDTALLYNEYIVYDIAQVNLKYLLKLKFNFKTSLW

[8] = tested on: thymocytes; test: Peroxynitrite-stimulated thymocytes: cell viability; settings: for EC50: Thymocyte, peroxynitrite 30 μM, 30 min pretreatment 0.1 to 30 μM, measured at 6 h, mean±SEM n=3-6, read-out: Enhancement of cell viability (thymocyte); for oxidant-induced suppression of the viability of the cells (in words): isolated thymocytes exposed to peroxynitrite or hydrogen peroxide
Description: as §2

[9] = LPS 10 μg/ml, 30 min pretreatment 0.1 to 30 μM, measured at 24 h, mean±SEM n=3-6

EC50 [2]	EC50 [3]	EC50 [4]	EC50 [5, 9]	activation of PARS (in words) [7]	Compound	high glucose induced PARP/PARS activation [1]	production of the pro-inflammatory cytokine TNF-α (in words) [2]	production of the chemokine MIP-1α (in words) [3]	production of the chemokine MIP-2 (in words) [4]	production of nitric oxide, measured as nitrite (in words) [5]	viability of the cells suppressed by LPS exposure (in words) [6]	EC50 [6]	EC50 [8]	oxidant-induced suppression of the viability of the cells (in words) [8]	Inhibition of Nitrite (J774) [5, 9]
					COC(=O)[C@@H](N)CCCNC(=N)N[N+](=O)[O-] [L-NAME, N^G-nitro-L-arginine methyl ester]	significantly reduced									
					CNC(=N)NCCC[C@H](N)C(=O)O [L-NMA, N^G-methyl-L-arginine]	significantly reduced									
					O=C(O)c1ccc(/C2=C3\C=CC(=N3)/C(c3ccc(C(=O)O)cc3)=c3/cc/c4[n]3[Mn]([Cl])[n]3c2ccc3/C(c2ccc(C(=O)O)cc2)=C2/C=CC(=N2)\C=4c2ccc(C(=O)O)cc2)cc1 [MnTBAP]	attenuated									
11.2 ± 1.1 µM	15.2 ± 2.1 µM	21.2 ± 2.7 µM	25.4 ± 2.9 µM	inhibited	O=C(CN1CCCCC1)Nc1ccc2[nH]c(=O)c3ccccc3c2c1 [PJ36]		inhibited	inhibited	inhibited	inhibited	restored the viability	20.2 ± 2.3 µM	0.3 ± 0.1 µM	prevented	
6.2 ± 0.42 µM	11.3 ± 1.4 µM	14.9 ± 1.3 µM	20.2 ± 1.5 µM	inhibited	O=C(CN1CCOCC1)Nc1ccc2[nH]c(=O)c3ccccc3c2c1 [PJ38]		inhibited	inhibited	inhibited	inhibited	restored the viability	22.1 ± 2.7 µM	0.4 ± 0.2 µM	prevented	
11.1 ± 0.67 µM	10.2 ± 0.95 µM	22.4 ± 1.2 µM		inhibited	CCN(CC)CC(=O)Nc1ccc2[nH]c(=O)c3ccccc3c2c1 [PJ44]		inhibited	inhibited	inhibited	inhibited	restored the viability	16.2 ± 1.9 µM	0.2 ± 0.1 µM	prevented	No effect
9.2 ± 0.88 µM	> 30 µM	> 30 µM	> 30 µM	inhibited	CN1CCN(CC(=O)Nc2ccc3[nH]c(=O)c4ccccc4c3c2)CC1 [PJ46]		inhibited	inhibited	inhibited	inhibited	restored the viability	> 30 µM	1.3 ± 0.3 µM	prevented	
					CC1(C)N([O])C(c2ccc(C(=O)O)cc2)=[N+]([O-])C1(C)C [carboxy-PTIO]	attenuated									
